US20230271932A1, “SMALL MOLECULE COVALENT ACTIVATORS OF UCP1” (Dana-Farber Cancer Institute, Inc., priority 2020, published 2023)

Target: T1, UCP1 (Mus musculus, UniProt P12242)
T1 construct: Cellular oxygen consumption and UCP1-rependent respiration of primary brown adipocytes; endogenous in cells; host or cells: primary brown adipocytes differentiated from the interscapular brown adipose stromal vascular fraction of 2- to 6-day-old pups
T1 sequence (P12242 1-307): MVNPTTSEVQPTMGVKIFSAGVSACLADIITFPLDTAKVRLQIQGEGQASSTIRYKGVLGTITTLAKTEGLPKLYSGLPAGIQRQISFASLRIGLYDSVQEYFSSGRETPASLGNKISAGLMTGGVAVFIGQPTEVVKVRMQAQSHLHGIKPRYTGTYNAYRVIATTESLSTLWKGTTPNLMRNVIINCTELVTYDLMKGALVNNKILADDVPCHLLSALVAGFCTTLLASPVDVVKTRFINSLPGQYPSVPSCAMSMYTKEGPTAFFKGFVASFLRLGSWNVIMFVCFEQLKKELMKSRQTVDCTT
Experiment: UCP1-dependent respiration in primary brown adipocytes (Seahorse XF24 oxygen consumption)
Assay type: cell-based
Settings: wild-type primary brown adipocytes; MYF compounds at 100 uM
Experimental: Primary brown adipocyte preparation and differentiation. Interscapular brown adipose stromal vascular fraction was obtained from 2- to 6-day-old pups as described in PMID: 30022159. Interscapular brown adipose was dissected, washed in PBS, minced, and digested for 45 min at 37° C. in PBS containing 1.5 mg ml^−1 collagenase B, 123 mM NaCl, 5 mM KCl, 1.3 mM CaCl2, 5 mM glucose, 100 mM HEPES, and 4% essentially fatty-acid-free BSA. Tissue suspension was filtered through a 40 µm cell strainer and centrifuged at 600 g for 5 min to pellet the SVF. The cell pellet was resuspended in adipocyte culture medium and plated. Cells were maintained at 37° C. in 10% CO2. Primary brown pre-adipocytes were counted and plated in the evening, 12 h before differentiation at 15,000 cells per well of a seahorse plate. Pre-adipocyte plating was scaled according to surface area. […]
Direct measure of UCP1-dependent respiration in brown adipocytes. […] Basal respiration was determined to be the oxygen consumption in the presence of substrate (1 mM sodium pyruvate) alone. Following determination of basal respiration, MYF compounds at 100 uM or vehicle was added to the cells and the respiration response measured immediately. […] Maximal respiration capacity was determined following addition of DNP (2 mM). […]

UCP-1-dependent respiration | Structure (SMILES)
activation | C=CC(=O)Nc1cc(-c2ccncc2)ccc1C(=O)OC [CP-A16, methyl 2-acrylamido-4-(pyridin-4-yl)benzoate]
activation | CCC(=O)Nc1cc(-c2ccnnc2)sc1C(=O)OC [ZNL-06-123]
